Laboratory results from patent US6960575B2, “Thiazine derivatives” (Santen Pharmaceutical Co., Ltd., priority 1999, dated 2005).

Legend:
[1] = target: T1, chymase extracted from a dog cardiac tissue (Canis lupus familiaris, UniProt P21842); test: Chymase inhibitory effect (liberation of His-Leu from angiotensin I, fluorescence); type: biochemical; details: substrate angiotensin I; 37° C., one hour; pH 8 reaction buffer; read-out: IC50 (concentration required to inhibit the chymase enzymatic activity by 50%)
T1 construct: The obtained supernatant is used as a chymase enzyme solution; from tissue; host or cells: beagle heart, left ventricle (2.0 M KCl / 1% Triton X-100 extract)
T1 sequence (P21842 22-249): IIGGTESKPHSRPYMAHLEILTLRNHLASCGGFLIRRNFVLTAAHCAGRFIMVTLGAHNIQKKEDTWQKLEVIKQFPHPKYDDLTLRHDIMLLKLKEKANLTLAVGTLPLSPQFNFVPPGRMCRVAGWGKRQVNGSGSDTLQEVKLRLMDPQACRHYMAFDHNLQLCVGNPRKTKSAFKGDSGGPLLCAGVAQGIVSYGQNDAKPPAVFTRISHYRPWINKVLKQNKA
Source text: Chymase (enzyme) causes angiotensin I (substrate) to liberate a dipeptide (His-Leu) by the enzyme reaction with the substrate. It was reported that an enzymatic activity of chymase can be measured by measuring fluorescence intensity of the resulting peptide (Biochem. Biophys. Res. Com., 149 (3) 1186 (1987)). Since drugs having chymase inhibitory activities suppress this liberation of the dipeptide, the chymase inhibitory activities of the drugs can be measured by measuring fluorescence intensity. In the present pharmacological test, chymase inhibitory effects of the present compounds were studied by using chymase extracted from a dog cardiac tissue (J. Biol. Chem., 265 (36), 22348 (1990)).
• 1. A beagle is killed by drawing blood under Nembutal anesthesia, a heart is enucleated, and left ventricle is separated. • 2. This left ventricle is finely minced, and the tissue weight is measured. • 3. A 0.02 M Tris-HCl buffer (pH 7.4) is added to the tissue in an amount of 10 times by volume the tissue weight. The obtained mixture is homogenized at 8,000 rpm for 20 seconds and then centrifuged at 4° C. and 21,000 rpm for 30 minutes, and the resulting supernatant is discarded. • 4. The same procedure as the above 3 is repeated twice for the residue. Then, a 0.02 M Tris-HCl buffer (pH 7.4) containing 1% Triton X-100 and 0.01 M potassium chloride is added to the residue in an amount of 10 times by volume the amount of the residue. The obtained mixture is homogenized at 8,000 rpm for 20 seconds, then incubated at 4° C. for one hour and centrifuged at 21,000 rpm for 30 minutes, and the supernatant is discarded. • 5. A 0.02 M Tris-HCl buffer (pH 7.4) containing 1% Triton X-100 and 0.5 M potassium chloride is added to the residue in an amount of 10 times by volume the amount of the residue. The obtained mixture is homogenized at 8,000 rpm for 20 seconds, then incubated at 4° C. for one hour and centrifuged at 21,000 rpm for 30 minutes, and the supernatant is discarded. • 6. A 0.02 M Tris-HCl buffer (pH 7.4) containing 1% Triton X-100 and 2.0 M potassium chloride is added to the residue in an amount of 10 times the amount of the residue. The obtained mixture is homogenized at 8,000 rpm for 20 seconds, then incubated at 4° C. for one hour and centrifuged at 21,000 rpm for 30 minutes. The obtained supernatant is used as a chymase enzyme solution. [2. Preparation of Reaction Buffer]
Tris-HCl and disodium ethylenediaminetetraacetate are dissolved in water so that their concentrations are 92.3 mM and 12.0 mM respectively to prepare a reaction buffer adjusted to pH 8.
Angiotensin I is dissolved in water to prepare a 1.54 mM substrate solution.
A test compound is dissolved in dimethyl sulfoxide to prepare 3.0×10^−3M, 3.0×10^−4 M, 3.0×10^−5 M and 3.0×10^−6 M test compound solutions.
• 1. The reaction buffer (32.5 μl), the substrate solution (75.0 μl), the chymase enzyme solution (37.5 μl) and the test compound solution (5 μl) are mixed. • 2. The obtained mixture is incubated at 37° C. for one hour. • 3. To the mixture is added 15% trichloroacetic acid (225 μl), and the whole is centrifuged at 4° C. and 14,000 rpm for five minutes. • 4. The supernatant is taken out. A 1% orthophthalaldehyde/methanol solution (165 μl) is added to 300 μl of this supernatant, and the whole is stirred and allowed to stand at room temperature for 10 minutes. • 5. 1.5 M Hydrochloric acid (300 μl) is added to the resulting mixture, and the whole is stirred and centrifuged at 4° C. and 14,000 rpm for two minutes. • 6. The supernatant is taken out and irradiated with light having a wavelength of 340 nm, and fluorescence intensity is measured at a wavelength of 455 nm.
The blank of this test is defined as follows. […]

Structure (SMILES) | melting point [°C] | IC50 [1] [nM]
CC(C)[C@@H]1C(=O)N(CC(=O)N[C@@H](Cc2ccccc2)C(=O)C2=NC(C)(C)CO2)C(c2ccccc2)=CN1C(=O)c1ccc[n+](CC(N)=O)c1.[Br-] | 110 | 
CC(C)OC(=O)C(=O)[C@H](Cc1ccccc1)NC(=O)CN1C(=O)C(C(C)C)N(C(=O)c2cccnc2)C=C1c1ccccc1 (mixture of isomers) [Compound No. 2-31, Isopropyl (3S)-3-{(3RS)-3-isopropyl-2-oxo-6-phenyl-4-(3-pyridylcarbonyl)-1,2,3,4-tetrahydropyrazin-1-yl}methylcarbonylamino-2-oxo-4-phenylbutyrate] |  | 210
CC(C)OC(=O)C(=O)[C@H](Cc1ccccc1)NC(=O)CN1C(=O)C(C(C)C)N(C(=O)c2ccncc2)C=C1c1ccccc1 (mixture of isomers) [Compound No. 2-32, Isopropyl (3S)-3-{(3RS)-3-isopropyl-2-oxo-6-phenyl-4-(4-pyridylcarbonyl)-1,2,3,4-tetrahydropyrazin-1-yl}methylcarbonylamino-2-oxo-4-phenylbutyrate] |  | 360
CC(C)OC(=O)C(=O)[C@H](Cc1ccccc1)NC(=O)CN1C(=O)C(C(C)C)N(S(=O)(=O)c2ccccc2)C=C1c1ccccc1 (mixture of isomers) [Compound No. 2-34, Isopropyl (3S)-3-{(3RS)-4-benzenesulfonyl-3-isopropyl-2-oxo-6-phenyl-1,2,3,4-tetrahydropyrazin-1-yl}methylcarbonylamino-2-oxo-4-phenylbutyrate] |  | 250
CC(=O)N1C=C(c2ccccc2)N(CC(=O)N[C@@H](Cc2ccccc2)C(=O)c2nc3ccccc3s2)C(=O)C1C(C)C (mixture of isomers) [Compound No. 2-46, (2S)-2-{(3RS)-4-Acetyl-3-isopropyl-2-oxo-6-phenyl-1,2,3,4-tetrahydropyrazin-1-yl}methylcarbonylamino-1-(1,3-benzothiazol-2-yl)-1-oxo-3-phenylpropane] |  | 3800
CC(=O)N1C=C(c2ccccc2)N(CC(=O)N[C@@H](Cc2ccccc2)C(=O)C2=NCCO2)C(=O)C1C(C)C (mixture of isomers) [Compound No. 2-47, (2S)-2-{(3RS)-4-Acetyl-3-isopropyl-2-oxo-6-phenyl-1,2,3,4-tetrahydropyrazin-1-yl}methylcarbonylamino-1-(4,5-dihydro-1,3-oxazol-2-yl)-1-oxo-3-phenylpropane] |  | 500
CC(=O)N1C=C(c2ccccc2)N(CC(=O)N[C@@H](Cc2ccccc2)C(=O)C2=NCCS2)C(=O)C1C(C)C (mixture of isomers) [Compound No. 2-48, (2S)-2-{(3RS)-4-Acetyl-3-isopropyl-2-oxo-6-phenyl-1,2,3,4-tetrahydropyrazin-1-yl}methylcarbonylamino-1-(4,5-dihydro-1,3-thiazol-2-yl)-1-oxo-3-phenylpropane] |  | 1200
CC(C)OC(=O)C(=O)[C@H](Cc1ccccc1)NC(=O)CN1C(=O)C(C(C)C)SC=C1c1ccccc1 (mixture of isomers) [Compound No. 2-63, Isopropyl (3S)-3-{(2RS)-2-isopropyl-3-oxo-5-phenyl-3,4-dihydro-2H-1,4-thiazin-4-yl}methylcarbonylamino-2-oxo-4-phenylbutyrate] |  | 320
COc1ccc(C2=CSC(C(C)C)C(=O)N2CC(=O)N[C@@H](Cc2ccccc2)C(=O)C(=O)OC(C)C)cc1 (mixture of isomers) [Compound No. 2-65, Isopropyl (3S)-3-{(2RS)-2-isopropyl-5-(4-methoxyphenyl)-3-oxo-3,4-dihydro-2H-1,4-thiazin-4-yl}methylcarbonylamino-2-oxo-4-phenylbutyrate] |  | 280
CC(C)OC(=O)C(=O)[C@H](Cc1ccccc1)NC(=O)CN1C(=O)[C@@H](C(C)C)N(C(=O)c2ccccc2)C=C1c1ccccc1 [Compound No. 2-22, Isopropyl (3S)-3-{(3R)-4-benzoyl-3-isopropyl-2-oxo-6-phenyl-1,2,3,4-tetrahydropyrazin-1-yl}methylcarbonylamino-2-oxo-4-phenylbutyrate] |  | 200

Continued, values first:

melting point [°C] | IC50 [1] [nM] | Structure (SMILES)
 | 370 | CC(C)C1C(=O)N(CC(=O)N[C@@H](Cc2ccccc2)C(=O)C2=NC(C)(C)CO2)C(c2ccccc2)=CN1C(=O)c1ccccc1 (mixture of isomers) [Compound No. 10-7, (2S)-2-{(3RS)-4-Benzoyl-3-isopropyl-2-oxo-6-phenyl-1,2,3,4-tetrahydropyrazin-1-yl}methylcarbonylamino-1-(4,4-dimethyl-4,5-dihydro-1,3-oxazol-2-yl)-1-oxo-3-phenylpropane]
 | 1500 | CC(=O)N1C=C(c2ccccc2)N(CC(=O)NC(Cc2ccccc2)C(=O)C(F)(F)F)C(=O)C1C(C)C (racemic) [Compound No. 4-1, (3RS)-3-{(3RS)-4-Acetyl-3-isopropyl-2-oxo-6-phenyl-1,2,3,4-tetrahydropyrazin-1-yl}methylcarbonylamino-2-oxo-4-phenyl-1,1,1-trifluorobutane]
100 to 125 |  | CC(C)[C@@H]1C(=O)N(CC(=O)N[C@@H](Cc2ccccc2)C(=O)C2=NCC(C)(C)S2)C(c2ccccc2)=CN1C(=O)c1ccncc1 [Compound No. 10-10, (2S)-1-(5,5-Dimethyl-4,5-dihydro-1,3-thiazol-2-yl)-2-{(3R)-3-isopropyl-2-oxo-6-phenyl-4-(4-pyridylcarbonyl)-1,2,3,4-tetrahydropyrazin-1-yl}methylcarbonylamino-1-oxo-3-phenylpropane]
135 to 150 |  | CC(C)[C@@H]1C(=O)N(CC(=O)N[C@@H](Cc2ccccc2)C(=O)C2=NC(C)(C)CO2)C(c2ccccc2)=CN1C(=O)c1ccc[n+](Cc2ccccc2)c1.[Br-] [Compound No. 21-3, 1-Benzyl-3-[(2R)-4-{(1S)-1-benzyl-2-(4,4-dimethyl-4,5-dihydro-1,3-oxazol-2-yl)-2-oxoethylcarbamoylmethyl}-2-isopropyl-3-oxo-5-phenyl-1,2,3,4-tetrahydro-1-pyrazinylcarbonyl]pyridinium bromide]
78 to 85 |  | CC(C)[C@@H]1C(=O)N(CC(=O)N[C@@H](Cc2ccccc2)C(=O)C2=NC(C)(C)CO2)C(c2ccccc2)=CN1C(=O)c1cc[n+](CC(N)=O)cc1.[I-] [Compound No. 21-12, 4-{(2R)-4-[(1S)-1-Benzyl-2-(4,4-dimethyl-4,5-dihydro-1,3-oxazol-2-yl)-2-oxoethylcarbamoylmethyl]-2-isopropyl-3-oxo-5-phenyl-1,2,3,4-tetrahydro-1-pyrazinylcarbonyl}-1-(carbamoylmethyl)pyridinium iodide]
